Assays:
histamine receptor = test: Histamine receptor binding
G93A-SOD1 mutant mice = test: Neurological score and weight loss in G93A-SOD1 mice, treatment from day 80; format: in vivo, mouse; conditions: daily treatment from day 80
Method: Neurological score was performed every day starting with compound treatment at 80 days, and was determined as follows: ‘0’=full extension of hind legs away from lateral midline when the test mouse was suspended by its tail, and could hold this for 2 seconds, suspended 2-3 times; ‘1’=collapse or partial collapse of leg extension towards lateral midline (weakness) or trembling of hind legs during tail suspension; ‘2’=toes curl under at least twice during walking of 12 inches, or any part of foot drags along cage bottom/table; ‘3’=rigid paralysis or minimal joint movement, foot not being used for forward motion; and ‘4’=mouse cannot right itself within 30 seconds from either side. Upon reaching a score of 2, animals were given a fresh Petri dish with wet food in the dish daily. When mice achieved a score of 4 for two consecutive days they were euthanized.
Mice were weighed daily starting on the day of initiation of compound administration in order to assess disease progression and readjust compound dosage. A digital balance with a step of 0.01 g was used, and mice were placed in a small plastic container on the scale when weighed. Weight was taken between 11 am and 1 pm every day.

HeLa cells = test: Toxicity to HeLa cells; format: cell-based

COc1cccc(NCC(F)Cn2c3ccc(Br)cc3c3cc(Br)ccc32)c1 (stereo not drawn) [Example P7C3A20, N-(3-(3,6-dibromo-9H-carbazol-9-yl)-2-fluoropropyl)-3-methoxyaniline]
histamine receptor binding (histamine receptor): no hERG channel binding, histamine receptor binding | other measures of disease progression (neurological score or weight loss) (G93A-SOD1 mutant mice): did not observe any delay in other measures of disease progression | toxicity to HeLa cells (HeLa cells): no hERG channel binding, histamine receptor binding or toxicity to HeLa cells
